From patent publication US20230079819A1, “COMPOUNDS AND USES THEREOF” (Foghorn Therapeutics Inc., priority 2019, published 2023)

Key:
[1] = target: T1, BRG-1 (Homo sapiens, UniProt P51532); assay: ATPase catalytic activity of BRG-1, ADP-Glo in vitro biochemical assay; details: ATPase catalytic activity, 30 nM BRG-1, 400 μM ATP, read-out: BRG1 IP50
T1 construct: made in house; host or cells: High Five insect cells

[2] = target: T2, BRM (Homo sapiens, UniProt P51531); assay: ATPase catalytic activity of BRM, ADP-Glo in vitro biochemical assay; details: ATPase catalytic activity, 30 nM BRM, 400 μM ATP, read-out: BRM IP50
T2 construct: made in house; host or cells: High Five insect cells
T2 sequence (P51531 whole entry): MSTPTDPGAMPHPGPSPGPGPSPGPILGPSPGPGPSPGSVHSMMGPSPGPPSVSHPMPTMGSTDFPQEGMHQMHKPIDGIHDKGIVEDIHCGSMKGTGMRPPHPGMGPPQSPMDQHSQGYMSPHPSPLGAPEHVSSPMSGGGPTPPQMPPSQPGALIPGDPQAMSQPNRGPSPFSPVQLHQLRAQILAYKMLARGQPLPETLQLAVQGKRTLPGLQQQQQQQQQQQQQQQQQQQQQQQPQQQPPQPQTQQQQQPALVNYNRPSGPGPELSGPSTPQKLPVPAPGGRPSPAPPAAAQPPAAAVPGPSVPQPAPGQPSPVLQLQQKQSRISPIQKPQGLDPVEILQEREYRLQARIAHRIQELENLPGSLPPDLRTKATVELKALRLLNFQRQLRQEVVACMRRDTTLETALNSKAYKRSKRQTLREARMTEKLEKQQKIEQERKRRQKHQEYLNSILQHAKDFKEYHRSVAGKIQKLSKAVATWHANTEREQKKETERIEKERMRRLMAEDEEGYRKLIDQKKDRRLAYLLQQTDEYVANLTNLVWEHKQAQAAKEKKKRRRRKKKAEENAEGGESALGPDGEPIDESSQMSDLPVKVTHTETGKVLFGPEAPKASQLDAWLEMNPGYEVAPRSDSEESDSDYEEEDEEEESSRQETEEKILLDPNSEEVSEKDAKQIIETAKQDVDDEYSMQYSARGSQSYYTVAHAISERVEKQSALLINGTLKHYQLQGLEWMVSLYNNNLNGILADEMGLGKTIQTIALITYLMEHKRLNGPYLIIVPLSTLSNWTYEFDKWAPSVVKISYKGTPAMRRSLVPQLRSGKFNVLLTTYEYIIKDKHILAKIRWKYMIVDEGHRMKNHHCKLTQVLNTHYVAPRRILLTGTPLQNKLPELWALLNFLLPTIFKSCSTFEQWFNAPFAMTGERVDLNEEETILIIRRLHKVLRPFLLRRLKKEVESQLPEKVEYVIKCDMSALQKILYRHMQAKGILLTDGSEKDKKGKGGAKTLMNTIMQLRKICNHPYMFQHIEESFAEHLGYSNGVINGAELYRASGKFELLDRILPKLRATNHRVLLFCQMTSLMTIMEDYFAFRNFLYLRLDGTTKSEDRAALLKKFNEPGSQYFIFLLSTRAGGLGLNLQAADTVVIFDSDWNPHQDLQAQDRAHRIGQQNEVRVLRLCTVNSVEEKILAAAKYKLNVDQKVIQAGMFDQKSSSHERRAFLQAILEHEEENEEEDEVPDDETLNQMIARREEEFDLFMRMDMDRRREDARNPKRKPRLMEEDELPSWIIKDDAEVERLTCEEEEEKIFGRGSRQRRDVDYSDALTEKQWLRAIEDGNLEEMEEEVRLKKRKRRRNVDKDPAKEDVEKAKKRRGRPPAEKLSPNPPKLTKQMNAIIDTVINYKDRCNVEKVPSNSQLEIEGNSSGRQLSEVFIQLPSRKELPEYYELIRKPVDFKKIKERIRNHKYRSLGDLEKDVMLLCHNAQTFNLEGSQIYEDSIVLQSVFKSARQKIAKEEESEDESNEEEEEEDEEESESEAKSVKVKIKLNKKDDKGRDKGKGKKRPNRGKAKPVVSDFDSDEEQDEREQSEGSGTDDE

T1 sequence (P51532 whole entry): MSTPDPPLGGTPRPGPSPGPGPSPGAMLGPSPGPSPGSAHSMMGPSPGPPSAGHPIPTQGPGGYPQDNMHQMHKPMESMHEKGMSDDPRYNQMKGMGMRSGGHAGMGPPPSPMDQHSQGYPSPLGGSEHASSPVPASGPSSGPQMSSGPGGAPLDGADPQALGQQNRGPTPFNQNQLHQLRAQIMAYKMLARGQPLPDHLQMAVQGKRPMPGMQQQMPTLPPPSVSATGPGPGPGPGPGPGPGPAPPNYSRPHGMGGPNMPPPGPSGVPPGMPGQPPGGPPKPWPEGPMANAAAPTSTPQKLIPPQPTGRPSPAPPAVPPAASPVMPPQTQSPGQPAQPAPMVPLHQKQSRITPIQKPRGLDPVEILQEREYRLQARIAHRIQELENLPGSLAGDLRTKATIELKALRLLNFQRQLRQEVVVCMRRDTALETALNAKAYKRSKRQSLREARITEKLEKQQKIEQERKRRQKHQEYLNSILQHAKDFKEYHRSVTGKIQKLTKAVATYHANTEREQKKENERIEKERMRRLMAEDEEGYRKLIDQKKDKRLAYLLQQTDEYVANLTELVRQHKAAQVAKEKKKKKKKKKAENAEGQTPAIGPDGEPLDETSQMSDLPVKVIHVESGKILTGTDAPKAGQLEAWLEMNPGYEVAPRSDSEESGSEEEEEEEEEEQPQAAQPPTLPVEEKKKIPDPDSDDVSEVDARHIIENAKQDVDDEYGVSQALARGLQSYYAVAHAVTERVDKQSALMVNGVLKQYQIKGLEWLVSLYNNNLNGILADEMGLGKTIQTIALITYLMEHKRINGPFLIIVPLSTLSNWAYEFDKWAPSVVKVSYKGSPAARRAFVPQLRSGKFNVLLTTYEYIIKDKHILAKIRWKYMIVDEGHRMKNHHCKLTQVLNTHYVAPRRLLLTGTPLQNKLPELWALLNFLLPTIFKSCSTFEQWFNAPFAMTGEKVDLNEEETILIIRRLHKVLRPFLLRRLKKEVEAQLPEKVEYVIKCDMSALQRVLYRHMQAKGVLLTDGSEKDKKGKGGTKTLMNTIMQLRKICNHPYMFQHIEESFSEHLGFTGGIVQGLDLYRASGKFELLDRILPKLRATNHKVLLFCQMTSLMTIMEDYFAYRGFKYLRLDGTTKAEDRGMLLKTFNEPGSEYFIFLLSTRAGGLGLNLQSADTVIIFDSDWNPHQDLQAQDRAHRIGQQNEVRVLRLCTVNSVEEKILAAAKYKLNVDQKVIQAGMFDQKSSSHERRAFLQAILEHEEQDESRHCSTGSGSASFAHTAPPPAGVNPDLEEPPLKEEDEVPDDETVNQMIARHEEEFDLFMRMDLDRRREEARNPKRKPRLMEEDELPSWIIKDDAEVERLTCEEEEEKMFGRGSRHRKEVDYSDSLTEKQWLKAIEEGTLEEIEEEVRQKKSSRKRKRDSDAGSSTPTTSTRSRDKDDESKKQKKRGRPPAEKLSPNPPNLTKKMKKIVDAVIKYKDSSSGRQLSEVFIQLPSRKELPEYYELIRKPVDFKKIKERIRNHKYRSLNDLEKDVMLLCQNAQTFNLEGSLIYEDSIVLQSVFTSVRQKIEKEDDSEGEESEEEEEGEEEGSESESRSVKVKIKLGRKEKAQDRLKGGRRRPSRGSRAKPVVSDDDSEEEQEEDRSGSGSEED

IC50 [1] | IC50 [2] | SMILES
> 100 nM | > 10 nM | CO[C@H]1C[C@@H](c2cccc(-c3csc(NC(=O)CNC(=O)c4ccn(C(C)(C)C)c4)n3)n2)C1 [Compound 515]
> 10 nM | > 10 nM | N#CC1(n2ccc(C(=O)NCC(=O)Nc3nc(-c4ccc(F)c(N5CCC5)c4)cs3)c2)CC1 [Compound 516]
> 10 nM | > 10 nM | C[C@@H]1Cc2ccc(-c3csc(NC(=O)CNC(=O)c4ccn(S(C)(=O)=O)c4)n3)cc2O1 [Compound 517]
< 10 nM | < 10 nM | CS(=O)(=O)n1ccc(C(=O)NCC(=O)Nc2nc(-c3cc(F)cc(N4CCC4)c3)cs2)c1 [Compound 518]
> 10 nM | > 10 nM | CC1(n2ccc(C(=O)NCC(=O)Nc3nc(-c4cc(F)cc(N5CCC5)c4)cs3)c2)COC1 [Compound 519]
> 100 nM | > 10 nM | C[C@@H]1CN(c2cccc(-c3nc(NC(=O)CNC(=O)c4ccn(C(C)(C)C)c4)sc3F)n2)C[C@H](C)O1 [Compound 520, 1-(tert-butyl)-N-(2-((4-(6-(cis-2,6-dimethylmorpholino)pyridin-2-yl)-5-fluorothiazol-2-yl)amino)-2-oxoethyl)-1H-pyrrole-3-carboxamide]
> 10 nM | < 10 nM | N#CC1(n2ccc(C(=O)NCC(=O)Nc3nc(-c4cc(F)cc(N5CCC5)c4)cs3)c2)CC1 [Compound 521]
> 100 nM | > 100 nM | N#CC1(n2ccc(C(=O)NCC(=O)Nc3nc(-c4cccc(OC(F)F)n4)cs3)c2)CC1 [Compound 522]
> 10 nM | > 10 nM | Cc1cncc(-c2cccc(-c3csc(NC(=O)CNC(=O)c4ccn(C5(C)COC5)c4)n3)n2)n1 [Compound 523, 1-(3-methyloxetan-3-yl)-N-[2-[[4-[6-(6-methylpyrazin-2-yl)-2-pyridyl]thiazol-2-yl]amino]-2-oxo-ethyl]pyrrole-3-carboxamide]
> 10 nM | < 10 nM | N#CC1(n2ccc(C(=O)NCC(=O)Nc3nc(-c4cccc(N5CCC5)c4F)cs3)c2)CC1 [Compound 524]
> 10 nM | > 10 nM | CC1(n2ccc(C(=O)NCC(=O)Nc3nc(-c4cccc(N5CCC5)c4F)cs3)c2)COC1 [Compound 525]
> 10 nM | > 10 nM | COC[C@H](NC(=O)c1ccn(C2(C#N)CC2)c1)C(=O)Nc1nc(-c2ccc3ccn(C)c(=O)c3c2)cs1 [Compound 526]
> 10 nM | > 10 nM | C[C@H]1Cc2ccc(-c3csc(NC(=O)CNC(=O)c4ccn(S(C)(=O)=O)c4)n3)cc2O1 [Compound 527]
> 100 nM | > 100 nM | N#CC1(n2ccc(C(=O)NCC(=O)Nc3nc(-c4cccc(OCC5(F)COC5)c4)cs3)c2)CC1 [Compound 528]
> 10 nM | < 10 nM | Cc1cncc(-c2cccc(-c3csc(NC(=O)CNC(=O)c4ccn(C5(C)COC5)c4)n3)c2)n1 [Compound 529]
> 10 nM | > 10 nM | CO[C@H]1C[C@H](c2cccc(-c3csc(NC(=O)CNC(=O)c4ccn(S(C)(=O)=O)c4)n3)c2)C1 [Compound 530]
> 10 nM | > 10 nM | CO[C@H]1C[C@H](c2ccc(-c3csc(NC(=O)CNC(=O)c4ccn(S(C)(=O)=O)c4)n3)cc2)C1 [Compound 531]
> 10 nM | > 10 nM | C[C@H](NC(=O)c1ccn(C2(C#N)CC2)c1)C(=O)Nc1nc(-c2ccc3ccn(C)c(=O)c3c2)cs1 [Compound 532]
> 10 nM | > 10 nM | CS(=O)(=O)n1ccc(C(=O)NCC(=O)Nc2nc(-c3cccc(N4CCC(C(F)F)CC4)c3)cs2)c1 [Compound 543]
< 10 nM | < 10 nM | CS(=O)(=O)n1ccc(C(=O)NCC(=O)Nc2nc(-c3cc(F)c4c(c3)CCO4)cs2)c1 [Compound 544]

IC50 [1] | IC50 [2] | SMILES
> 100 nM | > 10 nM | COC[C@H](NC(=O)c1ccn(S(C)(=O)=O)c1)C(=O)Nc1nc(-c2ccc(F)c(OC3CC3)c2)cs1 [Compound 545]
< 10 nM | < 10 nM | CN1CCOc2c(F)cc(-c3csc(NC(=O)CNC(=O)c4ccn(S(C)(=O)=O)c4)n3)cc21 [Compound 546]
> 100 nM | > 10 nM | CC(C)(C)n1ccc(C(=O)NCC(=O)Nc2nc(-c3cccc(OC4CC4)c3F)cs2)c1 [Compound 547]
> 100 nM | > 100 nM | CC1(n2ccc(C(=O)NCC(=O)Nc3nc(-c4cccc(OC5CC5)c4F)cs3)c2)COC1 [Compound 548]
> 10 nM | < 10 nM | COC[C@H](NC(=O)c1ccn(S(C)(=O)=O)c1)C(=O)Nc1nc(-c2ccc(F)c(N3CCC3)c2)cs1 [Compound 549]
> 10 nM | > 10 nM | COC[C@H](NC(=O)c1ccn(C(C)(C)C)c1)C(=O)Nc1nc(-c2ccc3c(=O)n(C)ccc3c2)cs1 [Compound 551]
> 10 nM | > 10 nM | CS(=O)(=O)n1ccc(C(=O)NCC(=O)Nc2nc(-c3cccc(N4CC[C@H](N)C(F)(F)C4)c3)cs2)c1 [Compound 552]
> 10 nM | > 10 nM | N#CC1(n2ccc(C(=O)NCC(=O)Nc3nc(-c4cccc(OC(F)(F)F)c4)cs3)c2)CC1 [Compound 553]
> 100 nM | > 10 nM | N#CC1(n2ccc(C(=O)NCC(=O)Nc3nc(-c4cccc(OC5CC5)c4)cs3)c2)CC1 [Compound 554, 1-(1-cyanocyclopropyl)-N-[2-[[4-[3-(cyclopropoxy)phenyl]thiazol-2-yl]amino]-2-oxo-ethyl]pyrrole-3-carboxamide]
> 10 nM | > 10 nM | N#CC1(n2ccc(C(=O)NCC(=O)Nc3nc(-c4cc(F)cc(OC5CC5)c4)cs3)c2)CC1 [Compound 555]
> 100 nM | > 10 nM | N#CC1(n2ccc(C(=O)NCC(=O)Nc3nc(-c4cccc(OC5CC5)c4F)cs3)c2)CC1 [Compound 556]
> 10 nM | > 10 nM | COC[C@H](NC(=O)c1ccn(S(C)(=O)=O)c1)C(=O)Nc1nc(-c2cccc(N3CCC(C(F)F)CC3)c2)cs1 [Compound 557, (S)—N-(1-((4-(3-(4-(difluoromethyl)piperidin-1-yl)phenyl)thiazol-2-yl)amino)-3-methoxy-1-oxopropan-2-yl)-1-(methylsulfonyl)-1H-pyrrole-3-carboxamide]
< 10 nM | < 10 nM | CS(=O)(=O)n1ccc(C(=O)NCC(=O)Nc2nc(-c3cccc(N4CC[C@@H](N)C(F)(F)C4)c3)cs2)c1 [Compound 558]
> 100 nM | > 100 nM | N#CC1(n2ccc(C(=O)NCC(=O)Nc3nc(-c4cccc(OC5CC5)n4)cs3)c2)CC1 [Compound 559]
> 10 nM | > 10 nM | C[C@@H]1CN(c2cccc(-c3csc(NC(=O)[C@H](C)NC(=O)c4ccn(C5(C#N)CC5)c4)n3)n2)C[C@H](C)O1 [Compound 560]
< 10 nM | < 10 nM | COC[C@H](NC(=O)c1ccn(C(C)(C)C)c1)C(=O)Nc1nc(-c2ccc3c(F)cn(C)c(=O)c3c2)cs1 [Compound 561]
> 10 nM | < 10 nM | Cn1ccc(-c2cccc(-c3csc(NC(=O)CNC(=O)c4ccn(C(C)(C)C#N)c4)n3)c2)n1 [Compound 562]
< 10 nM | < 10 nM | COC[C@H](NC(=O)c1ccn(C(C)(C)C)c1)C(=O)Nc1nc(-c2cc(F)c3ccn(C)c(=O)c3c2)cs1 [Compound 563]
< 10 nM | < 10 nM | COC[C@H](NC(=O)c1ccn(C2(C)COC2)c1)C(=O)Nc1nc(-c2cc(F)c3ccn(C)c(=O)c3c2)cs1 [Compound 564]
